From patent US20240366784A1, “INJECTABLE HYDROGEL COMPOSITIONS AND METHODS OF USE THEREOF” (Drexel University, priority 2023, published 2024)

Key:
RAW264.7 cells = assay: qPCR transcriptional analysis of zymosan-activated RAW264.7 macrophages; type: cell-based, murine; conditions: zymosan 100 μg/mL, drug 1 μM, 24 hrs
Procedure: For secondary identification of M2-promoting drugs, transcriptional analysis using qPCR was performed. RAW264.7 cells were plated at 1×10^6 cells/well in 24 well plates. After 24 h, media was replaced, and IL-4 (10 ng/mL, PeproTech) or zymosan (100 μg/mL) were included to serve as internal controls for M2-like and M1-like phenotypes, respectively. Treatment groups were concurrently activated via zymosan and treated with 1 μM drug concentrations, n=3 per group. After 24 hrs, cells were lysed by freezing, RNA was extracted (RNEasy Mini Kit; Qiagen), and cDNA synthesis was performed (High-Capacity cDNA Reverse Transcription Kit; Fisher). Samples were subject to qPCR using Taqman Fast Advanced Master Mix and probes (Fisher) for analysis of hprt (Mm01545399_m1), nos2 (Mm00440502_m1), il12b (Mm01288989_m1), il6 (Mm00446190_m1), mrc1 (Mm00485148_m1), il10 (Mm01288386_m1), and arg1 (Mm00475988_m1). Data is expressed as a fold change in gene expression using the ΔΔCt method, relative to the hprt and zymosan-treated controls.

[1] = test system: Bone marrow derived macrophages (BMDMs); assay: nanoString gene expression analysis in zymosan-activated bone marrow derived macrophages; type: cell-based, mouse; conditions: zymosan 100 μg/mL, drug 1 μM, 24 hrs, 91-gene panel
Procedure: Cells were maintained under standard culture conditions (37° C., 5% CO2) in the indicated medium which was replenished every two days. The murine MF cell lines, RAW 264.7 (ATCC) and RAW-Blue™ (InvivoGen), were cultured in Dulbecco's Modified Eagle Medium (DMEM) supplemented with heat-inactivated fetal bovine serum (FBS), and 1% penicillin-streptomycin (Pen-Strep). RAW-Blue™ media was additionally supplemented by 100 μg/ml Normocin with the addition of 100 μg/ml of Zeocin every other passage to maintain selection pressure, as recommended by the manufacturer. Cells were passaged at 70% confluency. Primary MF were derived from murine and human tissues. Bone marrow derived macrophages (BMDMs) were isolated and derived according to standard protocols. Marrow was extracted from the surgically resected femur and tibia of male C57BL/6 mice, dissociated, and filtered using a 40 μm strainer. Red blood cells were lysed with ammonium chloride, and recovered cells were plated at 2×10^6 cells/well in 24 well plates and maintained in Iscove's Modification of DMEM (IMDM) supplemented with 10% heat-inactivated FBS, 1% Pen-Strep, and 10 ng/mL recombinant mouse macrophage colony-stimulating factor (M-CSF; PeproTech). Primary human monocytes were isolated from peripheral blood (New York Blood Center) from a single healthy human donor via density centrifugation as previously described in the literature. […]

[2] = typically reported; cited from earlier work

Row | Compound | change in il12b expression among six selected drugs (RAW264.7 cells) | change in mrc1 and il10 expression among six selected drugs (RAW264.7 cells) | expression of M1-like genes (nos2, il6, il12b) (RAW264.7 cells; qPCR) | expression of M2-like genes (mrc1, arg1, il10) (RAW264.7 cells; qPCR) | cluster analysis of macrophage phenotype [1] | Keq of polyaromatic guests with CD [2]
1 | COc1ccc(C(=O)Nc2c(Cl)cncc2Cl)cc1OC1CCCC1 [piclamilast] | greatest decrease | greatest increase | significantly downregulated | upregulation | intermediate to M1 and M2 control phenotypes | –
2 | COc1cccc2c1C(=O)c1c(O)c3c(c(O)c1C2=O)C[C@@](O)(C(=O)CO)C[C@@H]3O[C@H]1C[C@H](N)[C@H](O)[C@H](C)O1 [doxorubicin] | – | – | – | – | – | single micromolar
3 | N[C@@H](Cc1c[nH]c2ccccc12)C(=O)O [tryptophan] | – | – | – | – | – | single micromolar
